{"source": "patent US6355799B1", "about": "“Substituted benzene compounds, process for their preparation, and herbicidal and defoliant compositions containing them” (ISK Americas Incorporated, priority 1997, dated 2002)", "assay_type_in_all_cases": "in vivo", "key": {"[1]": {"test_system": "redroot pigweed (Amaranthus retroflexus, AMARE)", "assay": "Pre-emerge test, greenhouse herbicide activity screening", "settings": "rated 14 days after application, 0 = no damage, 100 = complete death", "method_in_brief": "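Plants grown in 10 cm pots of sandy loam mix received acetone-dissolved compounds through a moving flat-fan nozzle. Doses ranged from 15 to 1000 g ai/ha. Pre-emerge pots were seeded one day earlier, post-emerge pots 8–21 days earlier. Fourteen days on, each pot was graded 0–100 for damage.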"}, "[2]": {"test_system": "barnyardgrass (Echinochloa crus-galli, ECHCG)", "assay": "Pre-emerge test, greenhouse herbicide activity screening", "settings": "rated 14 days after application, 0 = no damage, 100 = complete death", "method_in_brief": "(§1)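 Sandy loam pots; pre-emerge: sown 1 d pre-spray, surface-watered after, then bottom-watered. Post-emerge: sown 8–21 d before, 2–3 leaf stage, + 0.25% v/v NIS, bottom-watered. Acetone, 187 l/ha track spray, 15–1000 g ai/ha. 0–100 injury score, day 14.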"}, "[3]": {"test_system": "green foxtail (Setaria viridis, SETVI)", "assay": "Pre-emerge test, greenhouse herbicide activity screening", "settings": "rated 14 days after application, 0 = no damage, 100 = complete death", "method_in_brief": "as §1"}, "[4]": {"test_system": "ivyleaf morningglory (Ipomoea hederacea, IPOHE)", "assay": "Pre-emerge test, greenhouse herbicide activity screening", "settings": "rated 14 days after application, 0 = no damage, 100 = complete death", "method_in_brief": "as §1"}, "[5]": {"test_system": "johnsongrass (Sorghum halepense, SORHA)", "assay": "Pre-emerge test, greenhouse herbicide activity screening", "settings": "rated 14 days after application, 0 = no damage, 100 = complete death", "method_in_brief": "as §1"}, "[6]": {"test_system": "lambsquarters (Chenopodium album, CHEAL)", "assay": "Pre-emerge test, greenhouse herbicide activity screening", "settings": "rated 14 days after application, 0 = no damage, 100 = complete death", "method_in_brief": "as §1"}, "[7]": {"test_system": "large crabgrass (Digitaria sanguinalis, DIGSA)", "assay": "Pre-emerge test, greenhouse herbicide activity screening", "settings": "rated 14 days after application, 0 = no damage, 100 = complete death", "method_in_brief": "as §1"}, "[8]": {"test_system": "sicklepod (Cassia obtusifolia, CASOB)", "assay": "Pre-emerge test, greenhouse herbicide activity screening", "settings": "rated 14 days after application, 0 = no damage, 100 = complete death", "method_in_brief": "as §1"}, "[9]": {"test_system": "velvetleaf (Abutilon theophrasti, ABUTH)", "assay": "Pre-emerge test, greenhouse herbicide activity screening", "settings": "rated 14 days after application, 0 = no damage, 100 = complete death", "method_in_brief": "as §1"}, "[10]": {"test_system": "field corn (Zea mays L., var. Dekalb 535, CORN)", "assay": "Pre-emerge test, crop safety", "settings": "rated 14 days after application, 0 = no damage, 100 = complete death", "method_in_brief": "(§2)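 Rating: 0–100 visual injury, 14 DAA. Application: acetone, 187 l/ha, 15–1000 g ai/ha, flat-fan track sprayer with nozzle 40–45 cm above soil or canopy. Post-emerge runs used 0.25% v/v surfactant on 2–3 leaf plants.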"}, "[11]": {"test_system": "upland rice (Oryza sp., var. Tebonnet, RICE)", "assay": "Pre-emerge test, crop safety", "settings": "rated 14 days after application, 0 = no damage, 100 = complete death", "method_in_brief": "as §2"}, "[12]": {"test_system": "barnyardgrass (Echinochloa crus-galli, ECHCG)", "assay": "Post-emerge test, greenhouse herbicide activity screening", "settings": "post-emerge, 14 days after application, rating scale 0-100", "method_in_brief": "(§3)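 Applied at 15–1000 g ai/ha from acetone in 187 l/ha spray volume. Post-emergence applications included 0.25% v/v non-ionic surfactant and reached plants sown 8–21 days before. Pre-emergence applications were incorporated by surface watering. Efficacy or crop damage was rated on a 0–100 scale after 14 days.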"}, "[13]": {"test_system": "green foxtail (Setaria viridis, SETVI)", "assay": "Post-emerge test, greenhouse herbicide activity screening", "settings": "post-emerge, 14 days after application, rating scale 0-100", "method_in_brief": "as §3"}, "[14]": {"test_system": "ivyleaf morningglory (Ipomoea hederacea, IPOHE)", "assay": "Post-emerge test, greenhouse herbicide activity screening", "settings": "post-emerge, 14 days after application, rating scale 0-100", "method_in_brief": "as §3"}, "[15]": {"test_system": "johnsongrass (Sorghum halepense, SORHA)", "assay": "Post-emerge test, greenhouse herbicide activity screening", "settings": "post-emerge, 14 days after application, rating scale 0-100", "method_in_brief": "as §3"}, "[16]": {"test_system": "lambsquarters (Chenopodium album, CHEAL)", "assay": "Post-emerge test, greenhouse herbicide activity screening", "settings": "post-emerge, 14 days after application, rating scale 0-100", "method_in_brief": "as §3"}, "[17]": {"test_system": "large crabgrass (Digitaria sanguinalis, DIGSA)", "assay": "Post-emerge test, greenhouse herbicide activity screening", "settings": "post-emerge, 14 days after application, rating scale 0-100", "method_in_brief": "as §3"}, "[18]": {"test_system": "redroot pigweed (Amaranthus retroflexus, AMARE)", "assay": "Post-emerge test, greenhouse herbicide activity screening", "settings": "post-emerge, 14 days after application, rating scale 0-100", "method_in_brief": "as §3"}, "[19]": {"test_system": "sicklepod (Cassia obtusifolia, CASOB)", "assay": "Post-emerge test, greenhouse herbicide activity screening", "settings": "post-emerge, 14 days after application, rating scale 0-100", "method_in_brief": "as §3"}, "[20]": {"test_system": "velvetleaf (Abutilon theophrasti, ABUTH)", "assay": "Post-emerge test, greenhouse herbicide activity screening", "settings": "post-emerge, 14 days after application, rating scale 0-100", "method_in_brief": "as §3"}, "[21]": {"test_system": "field corn (Zea mays L., var. Dekalb 535, CORN)", "assay": "Post-emerge test, crop safety", "settings": "post-emerge, 14 days after application, rating scale 0-100", "method_in_brief": "as §1"}, "[22]": {"test_system": "upland rice (Oryza sp., var. Tebonnet, RICE)", "assay": "Post-emerge test, crop safety", "settings": "post-emerge, 14 days after application, rating scale 0-100", "method_in_brief": "as §1"}}}
{"compound": "Cn1c(C(F)(F)F)cc(=O)n(-c2c(F)cc(Cl)c(OCC#N)c2N(C(=O)c2ccc(F)cc2F)C(=O)c2ccc(F)cc2F)c1=O", "note": "[2-45]", "values": [{"measurement": "Pre-emerge Herbicidal Activity, phytotoxicity rating (0-100), AMARE", "setting": "[1]; 63 g ai/ha", "value": 70}, {"measurement": "Pre-emerge Herbicidal Activity, phytotoxicity rating (0-100), AMARE", "setting": "[1]; 250 g ai/ha", "value": 100}, {"measurement": "Pre-emerge Herbicidal Activity, phytotoxicity rating (0-100), ECHCG", "setting": "[2]; 63 g ai/ha", "value": "00"}, {"measurement": "Pre-emerge Herbicidal Activity, phytotoxicity rating (0-100), ECHCG", "setting": "[2]; 250 g ai/ha", "value": 0}, {"measurement": "Pre-emerge Herbicidal Activity, phytotoxicity rating (0-100), SETVI", "setting": "[3]; 63 g ai/ha", "value": 0}, {"measurement": "Pre-emerge Herbicidal Activity, phytotoxicity rating (0-100), SETVI", "setting": "[3]; 250 g ai/ha", "value": 30}, {"measurement": "Pre-emerge Herbicidal Activity, phytotoxicity rating (0-100), IPOHE", "setting": "[4]; 63 g ai/ha", "value": 0}, {"measurement": "Pre-emerge Herbicidal Activity, phytotoxicity rating (0-100), IPOHE", "setting": "[4]; 250 g ai/ha", "value": 0}, {"measurement": "Pre-emerge Herbicidal Activity, phytotoxicity rating (0-100), SORHA", "setting": "[5]; 63 g ai/ha", "value": 0}, {"measurement": "Pre-emerge Herbicidal Activity, phytotoxicity rating (0-100), SORHA", "setting": "[5]; 250 g ai/ha", "value": 0}, {"measurement": "Pre-emerge Herbicidal Activity, phytotoxicity rating (0-100), CHEAL", "setting": "[6]; 63 g ai/ha", "value": 60}, {"measurement": "Pre-emerge Herbicidal Activity, phytotoxicity rating (0-100), CHEAL", "setting": "[6]; 250 g ai/ha", "value": 90}, {"measurement": "Pre-emerge Herbicidal Activity, phytotoxicity rating (0-100), DIGSA", "setting": "[7]; 63 g ai/ha", "value": 0}, {"measurement": "Pre-emerge Herbicidal Activity, phytotoxicity rating (0-100), DIGSA", "setting": "[7]; 250 g ai/ha", "value": 0}, {"measurement": "Pre-emerge Herbicidal Activity, phytotoxicity rating (0-100), CASOB", "setting": "[8]; 63 g ai/ha", "value": 0}, {"measurement": "Pre-emerge Herbicidal Activity, phytotoxicity rating (0-100), CASOB", "setting": "[8]; 250 g ai/ha", "value": 0}, {"measurement": "Pre-emerge Herbicidal Activity, phytotoxicity rating (0-100), ABUTH", "setting": "[9]; 63 g ai/ha", "value": 0}, {"measurement": "Pre-emerge Herbicidal Activity, phytotoxicity rating (0-100), ABUTH", "setting": "[9]; 250 g ai/ha", "value": 70}, {"measurement": "Pre-emerge phytotoxicity rating (0-100), crop damage, CORN", "setting": "[10]; 63 g ai/ha", "value": 0}, {"measurement": "Pre-emerge phytotoxicity rating (0-100), crop damage, CORN", "setting": "[10]; 250 g ai/ha", "value": 0}, {"measurement": "Pre-emerge phytotoxicity rating (0-100), crop damage, RICE", "setting": "[11]; 63 g ai/ha", "value": 0}, {"measurement": "Pre-emerge phytotoxicity rating (0-100), crop damage, RICE", "setting": "[11]; 250 g ai/ha", "value": 0}, {"measurement": "phytotoxicity rating ECHCG", "setting": "[12]; 63 g ai/ha", "value": 0}, {"measurement": "phytotoxicity rating ECHCG", "setting": "[12]; 250 g ai/ha", "value": 0}, {"measurement": "phytotoxicity rating SETVI", "setting": "[13]; 63 g ai/ha", "value": 0}, {"measurement": "phytotoxicity rating SETVI", "setting": "[13]; 250 g ai/ha", "value": 40}, {"measurement": "phytotoxicity rating IPOHE", "setting": "[14]; 63 g ai/ha", "value": 20}, {"measurement": "phytotoxicity rating IPOHE", "setting": "[14]; 250 g ai/ha", "value": 30}, {"measurement": "phytotoxicity rating SORHA", "setting": "[15]; 63 g ai/ha", "value": 0}, {"measurement": "phytotoxicity rating SORHA", "setting": "[15]; 250 g ai/ha", "value": 0}, {"measurement": "phytotoxicity rating CHEAL", "setting": "[16]; 63 g ai/ha", "value": 30}, {"measurement": "phytotoxicity rating CHEAL", "setting": "[16]; 250 g ai/ha", "value": 30}, {"measurement": "phytotoxicity rating DIGSA", "setting": "[17]; 63 g ai/ha", "value": 0}, {"measurement": "phytotoxicity rating DIGSA", "setting": "[17]; 250 g ai/ha", "value": 0}, {"measurement": "phytotoxicity rating AMARE", "setting": "[18]; 63 g ai/ha", "value": 10}, {"measurement": "phytotoxicity rating AMARE", "setting": "[18]; 250 g ai/ha", "value": 20}, {"measurement": "phytotoxicity rating CASOB", "setting": "[19]; 63 g ai/ha", "value": 0}, {"measurement": "phytotoxicity rating CASOB", "setting": "[19]; 250 g ai/ha", "value": 20}, {"measurement": "phytotoxicity rating ABUTH", "setting": "[20]; 63 g ai/ha", "value": 30}, {"measurement": "phytotoxicity rating ABUTH", "setting": "[20]; 250 g ai/ha", "value": 40}, {"measurement": "phytotoxicity rating CORN", "setting": "[21]; 63 g ai/ha", "value": 0}, {"measurement": "phytotoxicity rating CORN", "setting": "[21]; 250 g ai/ha", "value": 5}, {"measurement": "phytotoxicity rating RICE", "setting": "[22]; 63 g ai/ha", "value": 0}, {"measurement": "phytotoxicity rating RICE", "setting": "[22]; 250 g ai/ha", "value": 10}]}
